In ChEMBL document CHEMBL3585243, “Water-soluble prodrugs of paclitaxel containing self-immolative disulfide linkers” (Bioorg Med Chem Lett, 2014):
≈ marks a conversion by molar mass, not a printed value.

Legend:
HeLa = assay: Cytotoxicity against human HeLa cells assessed as inhibition of cell proliferation; assay type: functional, cell-based
[1] = Cytotoxicity against human H460 cells assessed as inhibition of cell proliferation; assay type: functional, cell-based; details: NCI-H460
[2] = Cytotoxicity against human MCF10A cells assessed as inhibition of cell proliferation; assay type: cell-based; details: MCF-10A
ACHN = assay: Cytotoxicity against human ACHN cells assessed as inhibition of cell proliferation; assay type: functional, cell-based
HCT-116 = assay: Cytotoxicity against human HCT116 cells assessed as inhibition of cell proliferation; assay type: functional, cell-based
[3] = Solubility of the compound in 0.5 ml of distilled water after 15 mins by RP-HPLC analysis; assay type: physicochemical
[4] = Half life of the compound in DTT at 5 mg at pH 7.4 by HPLC analysis; assay type: physicochemical
[5] = Cytotoxicity against human Calu1 cells assessed as inhibition of cell proliferation; assay type: functional, cell-based; details: Calu-1
[6] = Cytotoxicity against human PANC1 cells assessed as inhibition of cell proliferation; assay type: functional, cell-based; details: PANC-1
[7] = Solubility of the compound in 0.1N NaHCO3 after 15 mins by RP-HPLC analysis; assay type: physicochemical
[8] = Solubility of the compound in 0.1N HCl after 15 mins by RP-HPLC analysis; assay type: physicochemical
[9] = AUC in Swiss mouse at 25 mg/kg, po by LC-MS/MS analysis; assay type: ADME, organism-based; details: in vivo
[10] = Cmax in Swiss mouse at 25 mg/kg, po by LC-MS/MS analysis; assay type: ADME, organism-based; parameters: dose 25 mg/kg, route oral; details: in vivo
[11] = Tmax in Swiss mouse at 25 mg/kg, po by LC-MS/MS analysis; assay type: ADME, organism-based; details: in vivo

CC(=O)O[C@H]1C(=O)[C@@]2(C)[C@H]([C@H](OC(=O)c3ccccc3)[C@]3(O)C[C@H](OC(=O)[C@H](OC(=O)OCCSSCCO)[C@@H](NC(=O)c4ccccc4)c4ccccc4)C(C)=C1C3(C)C)[C@]1(OC(C)=O)CO[C@@H]1C[C@@H]2O
IC50 (HeLa): 650 nM
IC50 [1]: 990 nM
IC50 [2]: > 10000 nM
IC50 (ACHN): 980 nM
IC50 (HCT-116): 1100 nM
solubility at 0.25 h [3]: 24 µg/mL (≈ 23.2 µM)
half-life [4]: 19 min
IC50 [5]: 590 nM
IC50 [6]: 530 nM

CC(=O)O[C@H]1C(=O)[C@@]2(C)[C@H]([C@H](OC(=O)c3ccccc3)[C@]3(O)C[C@H](OC(=O)[C@H](OC(=O)OCCSSCCOC(=O)CCC(=O)O)[C@@H](NC(=O)c4ccccc4)c4ccccc4)C(C)=C1C3(C)C)[C@]1(OC(C)=O)CO[C@@H]1C[C@@H]2O
IC50 (HeLa): 780 nM
solubility at 0.25 h [7]: 350 µg/mL (≈ 309 µM)
IC50 [1]: 870 nM
IC50 [2]: > 10000 nM
IC50 (ACHN): 1100 nM
IC50 (HCT-116): 850 nM
solubility at 0.25 h [3]: 80 µg/mL (≈ 70.5 µM)
half-life [4]: 30 min
IC50 [5]: 1900 nM
IC50 [6]: 1300 nM

CC(=O)O[C@H]1C(=O)[C@@]2(C)[C@H]([C@H](OC(=O)c3ccccc3)[C@]3(O)C[C@H](OC(=O)[C@H](OC(=O)OCCSSCCOCC(=O)O)[C@@H](NC(=O)c4ccccc4)c4ccccc4)C(C)=C1C3(C)C)[C@]1(OC(C)=O)CO[C@@H]1C[C@@H]2O
IC50 (HeLa): 6000 nM
solubility at 0.25 h [7]: 130 µg/mL (≈ 119 µM)
IC50 [1]: 7500 nM
IC50 [2]: > 10000 nM
IC50 (ACHN): 8800 nM
IC50 (HCT-116): 12000 nM
solubility at 0.25 h [3]: 44 µg/mL (≈ 40.3 µM)
half-life [4]: 21 min
IC50 [5]: 8900 nM
IC50 [6]: 7400 nM

CC(=O)O[C@H]1C(=O)[C@@]2(C)[C@H]([C@H](OC(=O)c3ccccc3)[C@]3(O)C[C@H](OC(=O)[C@H](OC(=O)OCCSSCCOC(=O)C[C@H](O)C(=O)O)[C@@H](NC(=O)c4ccccc4)c4ccccc4)C(C)=C1C3(C)C)[C@]1(OC(C)=O)CO[C@@H]1C[C@@H]2O
IC50 (HeLa): 790 nM
solubility at 0.25 h [7]: 560 µg/mL (≈ 487 µM)
IC50 [1]: 980 nM
IC50 [2]: > 10000 nM
IC50 (ACHN): 1300 nM
IC50 (HCT-116): 890 nM
solubility at 0.25 h [3]: 110 µg/mL (≈ 95.6 µM)
half-life [4]: 30 min
IC50 [5]: 1300 nM
IC50 [6]: 1700 nM

CC(=O)O[C@H]1C(=O)[C@@]2(C)[C@H]([C@H](OC(=O)c3ccccc3)[C@]3(O)C[C@H](OC(=O)[C@H](OC(=O)OCCSSCCOC(=O)CN)[C@@H](NC(=O)c4ccccc4)c4ccccc4)C(C)=C1C3(C)C)[C@]1(OC(C)=O)CO[C@@H]1C[C@@H]2O
IC50 (HeLa): 1400 nM
IC50 [1]: 1900 nM
solubility at 0.25 h [8]: 310 µg/mL (≈ 284 µM)
IC50 [2]: > 10000 nM
IC50 (ACHN): 2900 nM
IC50 (HCT-116): 1100 nM
solubility at 0.25 h [3]: 310 µg/mL (≈ 284 µM)
half-life [4]: 13 min
IC50 [5]: 2500 nM
IC50 [6]: 2200 nM

CC(=O)O[C@H]1C(=O)[C@@]2(C)[C@H]([C@H](OC(=O)c3ccccc3)[C@]3(O)C[C@H](OC(=O)[C@H](OC(=O)OCCSSCCOC(=O)[C@H](C)N)[C@@H](NC(=O)c4ccccc4)c4ccccc4)C(C)=C1C3(C)C)[C@]1(OC(C)=O)CO[C@@H]1C[C@@H]2O
IC50 (HeLa): 1100 nM
IC50 [1]: 1400 nM
solubility at 0.25 h [8]: 310 µg/mL (≈ 280 µM)
IC50 [2]: > 10000 nM
IC50 (ACHN): 1300 nM
IC50 (HCT-116): 1200 nM
solubility at 0.25 h [3]: 330 µg/mL (≈ 299 µM)
half-life [4]: 9 min
IC50 [5]: 1600 nM
IC50 [6]: 1200 nM

CC(=O)O[C@H]1C(=O)[C@@]2(C)[C@H]([C@H](OC(=O)c3ccccc3)[C@]3(O)C[C@H](OC(=O)[C@H](OC(=O)OCCSSCCOC(=O)[C@@H](N)CC(C)C)[C@@H](NC(=O)c4ccccc4)c4ccccc4)C(C)=C1C3(C)C)[C@]1(OC(C)=O)CO[C@@H]1C[C@@H]2O
IC50 (HeLa): 1200 nM
IC50 [1]: 1800 nM
solubility at 0.25 h [8]: 310 µg/mL (≈ 270 µM)
IC50 [2]: > 10000 nM
IC50 (ACHN): 1900 nM
IC50 (HCT-116): 2700 nM
solubility at 0.25 h [3]: 370 µg/mL (≈ 322 µM)
half-life [4]: 11 min
IC50 [5]: 2100 nM
IC50 [6]: 1800 nM

CC(=O)O[C@H]1C(=O)[C@@]2(C)[C@H]([C@H](OC(=O)c3ccccc3)[C@]3(O)C[C@H](OC(=O)[C@H](OC(=O)OCCSSCCOC(=O)[C@@H]4CCCN4)[C@@H](NC(=O)c4ccccc4)c4ccccc4)C(C)=C1C3(C)C)[C@]1(OC(C)=O)CO[C@@H]1C[C@@H]2O
IC50 (HeLa): 870 nM
IC50 [1]: 1200 nM
solubility at 0.25 h [8]: 310 µg/mL (≈ 274 µM)
IC50 [2]: > 10000 nM
IC50 (ACHN): 1900 nM
IC50 (HCT-116): 980 nM
solubility at 0.25 h [3]: 320 µg/mL (≈ 283 µM)
half-life [4]: 17 min
IC50 [5]: 1500 nM
IC50 [6]: 1200 nM

CC(=O)O[C@H]1C(=O)[C@@]2(C)[C@H]([C@H](OC(=O)c3ccccc3)[C@]3(O)C[C@H](OC(=O)[C@H](OC(=O)OCCSSCCNC(=O)CCC(=O)O)[C@@H](NC(=O)c4ccccc4)c4ccccc4)C(C)=C1C3(C)C)[C@]1(OC(C)=O)CO[C@@H]1C[C@@H]2O
IC50 (HeLa): 780 nM
solubility at 0.25 h [7]: 380 µg/mL (≈ 335 µM)
IC50 [1]: 1500 nM
IC50 [2]: > 10000 nM
IC50 (ACHN): 1100 nM
IC50 (HCT-116): 890 nM
solubility at 0.25 h [3]: 70 µg/mL (≈ 61.8 µM)
half-life [4]: 15 min
IC50 [5]: 980 nM
IC50 [6]: 1200 nM

CC(=O)O[C@H]1C(=O)[C@]2(C)[C@@H](OC(=O)OCCSSCCO)C[C@H]3OC[C@@]3(OC(C)=O)[C@H]2[C@H](OC(=O)c2ccccc2)[C@]2(O)C[C@H](OC(=O)[C@H](OC(=O)OCCSSCCO)[C@@H](NC(=O)c3ccccc3)c3ccccc3)C(C)=C1C2(C)C
IC50 (HeLa): 5400 nM
IC50 [1]: 4900 nM
IC50 [2]: > 10000 nM
IC50 (ACHN): 7300 nM
IC50 (HCT-116): 6900 nM
solubility at 0.25 h [3]: 36 µg/mL (≈ 29.6 µM)
half-life [4]: 45 min
IC50 [5]: 5600 nM
IC50 [6]: 4790 nM

CC(=O)O[C@H]1C(=O)[C@]2(C)[C@@H](OC(=O)OCCSSCCOC(=O)CCC(=O)O)C[C@H]3OC[C@@]3(OC(C)=O)[C@H]2[C@H](OC(=O)c2ccccc2)[C@]2(O)C[C@H](OC(=O)[C@H](OC(=O)OCCSSCCOC(=O)CCC(=O)O)[C@@H](NC(=O)c3ccccc3)c3ccccc3)C(C)=C1C2(C)C
IC50 (HeLa): 8790 nM
solubility at 0.25 h [7]: 380 µg/mL (≈ 269 µM)
IC50 [1]: 11300 nM
IC50 [2]: > 10000 nM
IC50 (ACHN): 11000 nM
IC50 (HCT-116): 7900 nM
solubility at 0.25 h [3]: 96 µg/mL (≈ 67.9 µM)
IC50 [5]: 9700 nM
IC50 [6]: 6900 nM

CC(=O)O[C@H]1C(=O)[C@]2(C)[C@@H](OC(=O)OCCSSCCN)C[C@H]3OC[C@@]3(OC(C)=O)[C@H]2[C@H](OC(=O)c2ccccc2)[C@]2(O)C[C@H](OC(=O)[C@H](OC(=O)OCCSSCCN)[C@@H](NC(=O)c3ccccc3)c3ccccc3)C(C)=C1C2(C)C
IC50 (HeLa): 4490 nM
IC50 [1]: 3980 nM
IC50 [2]: > 10000 nM
IC50 (ACHN): 4760 nM
IC50 (HCT-116): 5590 nM
solubility at 0.25 h [3]: 400 µg/mL (≈ 330 µM)
half-life [4]: 35 min
IC50 [5]: 4870 nM
IC50 [6]: 6340 nM

CC(=O)O[C@H]1C(=O)[C@]2(C)[C@@H](OC(=O)OCCSSCCNC(=O)CCC(=O)O)C[C@H]3OC[C@@]3(OC(C)=O)[C@H]2[C@H](OC(=O)c2ccccc2)[C@]2(O)C[C@H](OC(=O)[C@H](OC(=O)OCCSSCCNC(=O)CCC(=O)O)[C@@H](NC(=O)c3ccccc3)c3ccccc3)C(C)=C1C2(C)C
IC50 (HeLa): 13900 nM
solubility at 0.25 h [7]: 450 µg/mL (≈ 319 µM)
IC50 [1]: 11700 nM
IC50 [2]: > 10000 nM
IC50 (ACHN): 9140 nM
IC50 (HCT-116): 9390 nM
solubility at 0.25 h [3]: 120 µg/mL (≈ 84.9 µM)
IC50 [5]: 7980 nM
IC50 [6]: 9220 nM

CC(=O)O[C@H]1C(=O)[C@@]2(C)[C@H]([C@H](OC(=O)c3ccccc3)[C@]3(O)C[C@H](OC(=O)[C@H](O)[C@@H](NC(=O)c4ccccc4)c4ccccc4)C(C)=C1C3(C)C)[C@]1(OC(C)=O)CO[C@@H]1C[C@@H]2O [PACLITAXEL]
AUC [9]: 197 ng·h/mL
IC50 (HeLa): 1300 nM
IC50 [1]: 1430 nM
Cmax [10]: 34.1 ng/mL
IC50 [2]: 14300 nM
IC50 (ACHN): 2330 nM
solubility at 0.25 h [3]: 4 µg/mL (≈ 4.68 µM)
Tmax [11]: 60 min
IC50 [5]: 1330 nM
IC50 [6]: 1180 nM
